Data as given in ChEMBL document CHEMBL1147103, “First identification of Pseudomonas aeruginosa isolates producing a KPC-type carbapenem-hydrolyzing beta-lactamase” (2007).
Values after ≈ are worked out from the molar mass of the structure shown.

Columns and labels:
Type in all cases: functional
[1] = tested on: Pseudomonas aeruginosa; test: Antimicrobial susceptibility of carbapenem-resistant Pseudomonas aeruginosa PA4036 isolate expressing carbapenemase KPC2
[2] = tested on: Pseudomonas aeruginosa; test: Antimicrobial susceptibility of carbapenem-resistant Pseudomonas aeruginosa PA4012 isolate expressing carbapenemase KPC2
[3] = tested on: Citrobacter freundii; test: Antimicrobial susceptibility of Citrobacter freundii CF6010 isolate expressing carbapenemase KPC2
[4] = tested on: Pseudomonas aeruginosa; test: Antimicrobial susceptibility of carbapenem-resistant Pseudomonas aeruginosa PA2404 isolate expressing carbapenemase KPC2

Compound | MIC [1] [µg/mL] | MIC [2] [µg/mL] | MIC [3] [µg/mL] | MIC [4] [µg/mL]
CC(O)[C@H]1C(=O)N2C(C(=O)O)=C(SCCNC=N)C[C@H]12 (single isomer, unassigned) [IMIPENEM ANHYDROUS] | > 256 | > 256 | 8 (≈ 26.7 µM) | 256 (≈ 855 µM)
CO/N=C(\C(=O)N[C@@H]1C(=O)N2C(C(=O)O)=C(COC(C)=O)CS[C@H]12)c1csc(N)n1 (stereo in doubt) [CEFOTAXIME] | > 256 | > 256 | 32 (≈ 70.3 µM) | > 256
NCC[C@H](O)C(=O)N[C@@H]1C[C@H](N)[C@@H](O[C@H]2O[C@H](CN)[C@@H](O)[C@H](O)[C@H]2O)[C@H](O)[C@H]1O[C@H]1O[C@H](CO)[C@@H](O)[C@H](N)[C@H]1O [AMIKACIN] | 16 (≈ 27.3 µM) | 16 (≈ 27.3 µM) | 2 (≈ 3.42 µM) | 16 (≈ 27.3 µM)
CC1(C)S[C@@H]2[C@H](NC(=O)[C@H](N)c3ccccc3)C(=O)N2[C@H]1C(=O)O [AMPICILLIN] | > 256 | > 256 | > 256 | > 256
C[C@H]1[C@H](NC(=O)/C(=N\OC(C)(C)C(=O)O)c2csc(N)n2)C(=O)N1S(=O)(=O)O [AZTREONAM] | > 256 | > 256 | 128 (≈ 294 µM) | > 256
CO/N=C(\C(=O)N[C@@H]1C(=O)N2C(C(=O)[O-])=C(C[N+]3(C)CCCC3)CS[C@H]12)c1csc(N)n1 [CEFEPIME] | > 256 | > 256 | 8 (≈ 16.6 µM) | > 256
CC(C)(O/N=C(\C(=O)N[C@@H]1C(=O)N2C(C(=O)[O-])=C(C[n+]3ccccc3)CS[C@H]12)c1csc(N)n1)C(=O)O [CEFTAZIDIME] | 256 (≈ 468 µM) | 256 (≈ 468 µM) | 32 (≈ 58.5 µM) | 256 (≈ 468 µM)
CO/N=C(\C(=O)N[C@@H]1C(=O)N2C(C(=O)O)=C(CSc3nc(=O)c(O)nn3C)CS[C@H]12)c1csc(N)n1 [CEFTRIAXONE] | > 256 | > 256 | 256 (≈ 462 µM) | > 256
C[C@@H](O)[C@H]1C(=O)N2C(C(=O)O)=C(S[C@@H]3CN[C@H](C(=O)Nc4cccc(C(=O)O)c4)C3)[C@H](C)[C@H]12 [ERTAPENEM] | > 256 | 256 (≈ 538 µM) | 16 (≈ 33.6 µM) | > 256
C[C@@H](O)[C@H]1C(=O)N2C(C(=O)O)=C(S[C@@H]3CN[C@H](C(=O)N(C)C)C3)[C@H](C)[C@H]12 [MEROPENEM] | > 256 | > 256 | 8 (≈ 20.9 µM) | > 256
CCN1CCN(C(=O)N[C@@H](C(=O)N[C@@H]2C(=O)N3[C@@H]2SC(C)(C)[C@@H]3C(=O)O)c2ccccc2)C(=O)C1=O [PIPERACILLIN] | > 256 | > 256 | > 256 | > 256
CN(C)c1cc(NC(=O)CNC(C)(C)C)c(O)c2c1C[C@H]1C[C@H]3[C@H](N(C)C)C(O)=C(C(N)=O)C(=O)[C@@]3(O)C(O)=C1C2=O [TIGECYCLINE] | 16 (≈ 27.3 µM) | 16 (≈ 27.3 µM) | 0.5 (≈ 0.854 µM) | 16 (≈ 27.3 µM)
NC[C@H]1O[C@H](O[C@H]2[C@H](O)[C@@H](O[C@H]3O[C@H](CO)[C@@H](O)[C@H](N)[C@H]3O)[C@H](N)C[C@@H]2N)[C@H](N)C[C@@H]1O [TOBRAMYCIN] | > 128 | > 128 | 64 (≈ 137 µM) | > 128
COLISTIN | 1 | 2 | 0.5 | 1
GENTAMICIN | > 128 | > 128 | > 128 | > 128
